Publication PMC4141209 (FEBS Open Bio, 2014)
Like-named read-outs stand apart in the source and are kept apart here.

Key:
TlLhpI [1] = assay: NADH oxidation at […] nm; type: biochemical, Thermococcus litoralis; conditions: NADH 0.15 mM, potassium phosphate pH 6.0, 50 °C
TlLhpI [2] = conditions: NADH 0.15 mM, potassium phosphate pH 6.0, 50 °C
TlLhpI [3] = assay: NADH oxidation at […] nm; type: biochemical, Thermococcus litoralis; conditions: NADH 0.15 mM, NH4Cl 700 mM, Tris-HCl pH 8.0, 50 °C
TlLhpI [4] = conditions: NADH 0.15 mM, NH4Cl 700 mM, Tris-HCl pH 8.0, 50 °C
TlLhpI [5] = assay: NAD+ reduction at […] nm; type: biochemical, Thermococcus litoralis
TlLhpI [6] = conditions: NAD+ 1.5 mM, Bis-tris propane pH 10.5, 50 °C
[7] = NAD+ 1.5 mM, Bis-tris propane pH 10.5, 50 °C
[8] = NAD+-dependent oxidation, 50 °C

Compound	Km (TlLhpI [3])	Km (TlLhpI [5]; [7])	further results
O=C(O)C1=NCCC1 [Pyr2C, Δ^1-pyrroline-2-carboxylate]			Km (TlLhpI [1]): 944 ± 90 µM; Km (TlLhpI [2]): 2770 ± 440 µM
CC(C)CC(=O)C(=O)O [4-Methyl-2-oxovalerate]	2520 ± 450 µM		
CC(=O)C(=O)O [Pyruvate]	9370 ± 230 µM		Km (TlLhpI [4]): 62000 ± 12200 µM
CC(C)C[C@H](N)C(=O)O [L-Leucine]		1320 ± 100 µM	
CCC(=O)C(=O)O [2-Oxobutyrate]	701 ± 20 µM		
O=C(O)CC(=O)C(=O)O [Oxalacetate]	8860 ± 910 µM		
CN[C@@H](C)C(=O)O [N-Methyl-L-alanine]			Km (TlLhpI [5]; [8]): 406 ± 44 µM
C[C@H](N)C(=O)O [L-Alanine]		18200 ± 5000 µM	Km (TlLhpI [6]): 36900 ± 900 µM
CC[C@H](N)C(=O)O [L-2-Aminobutyrate]		6000 ± 290 µM	
O=C(O)[C@@H]1CCCN1 [L-Proline]		1120 ± 120 µM	Km (TlLhpI [6]): 444 ± 8 µM
CCCC(=O)C(=O)O [2-Oxovalerate]	969 ± 93 µM		Km (TlLhpI [4]): 1820 ± 140 µM
CCC[C@H](N)C(=O)O [L-2-Aminovalerate]		306 ± 9 µM	Km (TlLhpI [6]): 2130 ± 300 µM
O=C(O)[C@@H]1CCCCN1 [L-Pipecolate]			Km (TlLhpI [5]; [8]): 608 ± 115 µM
